The experiment addresses T1, α-glucosidase (EC 3.2.1.20) from Saccharomyces cerevisiae (Saccharomyces cerevisiae, UniProt P53341).
T1 construct: purchased Sigma Chemical Co., St. Louis, USA
The experiment can be described thus: biochemical. The class given is biochemical. The note with it: mean of quadruplet experiments ± SEM, from Dixon plots, pH 6.8, 37 °C. The procedure: All in vitro α-glucosidase inhibition assays were performed in a 96-well microplate format. The α-glucosidase inhibition assay reported elsewhere was customized to suit the experimental needs of the current work. The assay mixture contained 50 mM sodium phosphate buffer (pH 6.8), 20 mU of α-glucosidase (EC 3.2.1.20) from Saccharomyces cerevisiae (Sigma Chemical Co., St. Louis, USA), and 1.0 mM of p-nitrophenyl-α-D-glucopyranoside (PNP-G) substrate. All target compounds were dissolved in DMSO with the assay mixture containing DMSO at a final concentration of 3%. […] The reaction was continuously monitored at 400 nm in SpectraMax Plus 384® microplate reader (Molecular Devices, CA, USA). […] All assays were performed as four individual experiments out of which the values of mean and standard error of mean (SEM) were calculated.
The enzyme kinetics assay procedure was essentially the same as mentioned above except that it was specifically designed for the kinetic work. […] The type of inhibition was calculated from the Lineweaver-Burk plots which was further confirmed by the Dixon plot using Grafit 7.0.3 software (Erithacus Software Ltd., Staines, UK). The Ki values were also calculated from their respective Dixon plots. All kinetic experiments were conducted in quadruplicate from which mean Ki values and the SEM were calculated.

The structures appear in SMILES notation. Entries after “also recorded” stand apart in the source; their conditions may differ. Like-named read-outs stand apart in the source and are kept apart here.

T1 sequence (P53341 whole entry): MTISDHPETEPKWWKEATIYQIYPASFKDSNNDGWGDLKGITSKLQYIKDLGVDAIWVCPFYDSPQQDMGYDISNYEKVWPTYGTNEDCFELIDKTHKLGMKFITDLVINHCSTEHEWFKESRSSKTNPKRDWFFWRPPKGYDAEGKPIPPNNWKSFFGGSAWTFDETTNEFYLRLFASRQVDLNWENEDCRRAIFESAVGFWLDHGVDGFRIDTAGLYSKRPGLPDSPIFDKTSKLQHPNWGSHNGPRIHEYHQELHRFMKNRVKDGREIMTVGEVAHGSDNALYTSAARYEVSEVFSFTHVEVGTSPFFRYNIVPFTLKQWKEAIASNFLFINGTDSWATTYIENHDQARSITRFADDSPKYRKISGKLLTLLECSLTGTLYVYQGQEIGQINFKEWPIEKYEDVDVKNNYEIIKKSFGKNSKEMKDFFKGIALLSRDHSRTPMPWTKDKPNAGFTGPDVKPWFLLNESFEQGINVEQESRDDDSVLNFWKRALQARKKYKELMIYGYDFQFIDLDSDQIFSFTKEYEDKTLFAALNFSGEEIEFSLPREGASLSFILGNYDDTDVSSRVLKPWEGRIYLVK

Take `CN(C)CCCN1CCN(C(=S)SCCCC(=O)c2ccc(Cl)cc2)CC1` [PC1]: the Ki (read-out: Ki) turned out to be 5.75 ± 0.2 µM. Take `CN(C)CCCN1CCN(C(=S)SCCC(=O)c2ccccc2)CC1` [PC9]: the Ki entry is on record as “no inhibitory activity; also recorded: Inactive”.

Usually Ki stands for a measure of affinity in units of concentration, obtained from inhibition or displacement.

For the origin of these results see article PMC10390107, “The 4-(dimethylaminoalkyl)piperazine inhibitors of α-glucosidase: allosteric enzyme inhibition and identification of interacting chemical groups” (Turkish Journal of Chemistry, 2022).
